Reference: patent publication US20240327381A1, “Compounds and Compositions for Selective Degradation of Engineered Proteins” (Celgene Corporation, priority 2023, published 2024)
Like-named read-outs stand apart in the source and are kept apart here.

Columns and labels:
[1] = target: T1, Helios (Homo sapiens, UniProt Q9UKS7); experiment: Helios degradation in Jurkat/Helios/HiBit cells (Nano-Glo luminescence); format: cell-based; conditions: 18 hr, read-out: Helios Jurkat Hibit IC50
T1 construct: endogenous in cells; host or cells: Jurkat cells, CRISPR/Cas9 knock-in of HiBit at the IKZF2 locus
T1 sequence (Q9UKS7 whole entry): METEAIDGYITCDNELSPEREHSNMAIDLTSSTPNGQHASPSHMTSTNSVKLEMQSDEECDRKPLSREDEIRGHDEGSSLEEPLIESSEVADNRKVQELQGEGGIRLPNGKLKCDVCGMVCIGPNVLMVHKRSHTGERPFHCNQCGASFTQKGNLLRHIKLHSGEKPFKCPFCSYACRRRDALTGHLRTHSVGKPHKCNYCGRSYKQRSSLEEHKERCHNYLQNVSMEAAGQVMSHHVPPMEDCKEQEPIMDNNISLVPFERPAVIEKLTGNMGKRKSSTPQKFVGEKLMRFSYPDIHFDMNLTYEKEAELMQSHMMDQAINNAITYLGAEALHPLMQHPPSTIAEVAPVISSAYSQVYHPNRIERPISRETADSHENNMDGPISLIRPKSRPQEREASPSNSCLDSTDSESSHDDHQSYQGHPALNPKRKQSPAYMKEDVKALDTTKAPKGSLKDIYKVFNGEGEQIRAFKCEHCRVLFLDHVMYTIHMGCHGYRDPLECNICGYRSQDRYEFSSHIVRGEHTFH
T1 sequence (Q96SW2 whole entry, further chain): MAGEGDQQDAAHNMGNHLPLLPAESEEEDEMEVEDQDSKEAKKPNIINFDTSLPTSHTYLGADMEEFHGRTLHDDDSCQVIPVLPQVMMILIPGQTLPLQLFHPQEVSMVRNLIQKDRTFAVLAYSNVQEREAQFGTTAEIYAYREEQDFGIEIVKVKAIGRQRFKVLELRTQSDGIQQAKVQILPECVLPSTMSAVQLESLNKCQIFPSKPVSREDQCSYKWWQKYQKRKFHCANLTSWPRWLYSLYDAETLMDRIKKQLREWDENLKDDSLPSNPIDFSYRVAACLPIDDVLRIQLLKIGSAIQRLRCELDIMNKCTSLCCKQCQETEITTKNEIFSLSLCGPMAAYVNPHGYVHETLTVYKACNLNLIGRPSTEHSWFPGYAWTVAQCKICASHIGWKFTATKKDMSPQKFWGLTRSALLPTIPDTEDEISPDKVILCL
T1 sequence (Q16531 whole entry partner): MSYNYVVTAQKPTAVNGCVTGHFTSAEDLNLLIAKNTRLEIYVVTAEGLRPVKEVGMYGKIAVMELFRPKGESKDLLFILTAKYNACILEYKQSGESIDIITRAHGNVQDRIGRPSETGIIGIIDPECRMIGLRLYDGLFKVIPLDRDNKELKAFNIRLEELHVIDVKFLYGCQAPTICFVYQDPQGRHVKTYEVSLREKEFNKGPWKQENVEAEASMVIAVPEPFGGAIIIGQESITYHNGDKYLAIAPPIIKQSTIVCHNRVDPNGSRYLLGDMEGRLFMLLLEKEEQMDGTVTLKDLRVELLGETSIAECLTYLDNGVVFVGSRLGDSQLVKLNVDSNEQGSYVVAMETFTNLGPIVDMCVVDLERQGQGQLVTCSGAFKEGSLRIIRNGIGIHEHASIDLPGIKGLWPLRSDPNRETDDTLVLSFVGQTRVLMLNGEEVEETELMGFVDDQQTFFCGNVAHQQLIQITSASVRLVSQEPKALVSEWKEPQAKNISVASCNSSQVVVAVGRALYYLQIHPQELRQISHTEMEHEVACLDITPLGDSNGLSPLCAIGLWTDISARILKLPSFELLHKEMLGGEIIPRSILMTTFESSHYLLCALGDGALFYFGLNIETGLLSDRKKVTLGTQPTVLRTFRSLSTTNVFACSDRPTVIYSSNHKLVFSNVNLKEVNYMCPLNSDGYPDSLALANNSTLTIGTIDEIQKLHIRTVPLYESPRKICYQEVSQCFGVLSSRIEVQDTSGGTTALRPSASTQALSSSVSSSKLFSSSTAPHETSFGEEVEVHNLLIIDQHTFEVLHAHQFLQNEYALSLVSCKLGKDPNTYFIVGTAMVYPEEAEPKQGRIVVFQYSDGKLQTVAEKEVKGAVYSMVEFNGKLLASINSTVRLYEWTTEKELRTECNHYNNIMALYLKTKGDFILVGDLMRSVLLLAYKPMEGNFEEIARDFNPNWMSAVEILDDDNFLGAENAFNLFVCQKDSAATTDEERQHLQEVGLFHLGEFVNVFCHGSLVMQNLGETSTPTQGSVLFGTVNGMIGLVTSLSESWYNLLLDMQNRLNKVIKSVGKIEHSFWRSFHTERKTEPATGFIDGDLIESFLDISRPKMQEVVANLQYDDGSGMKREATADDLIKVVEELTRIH
Protocol: For Helios, a stable Jurkat cell line was engineered using CRISPR/Cas9 to insert an in-frame HiBit tag into the carboxy-terminal reading frame of the IKZF2 gene. The sequence of human Helios is shown below:
Test compounds were transferred to 1536 well plates using an acoustic dispenser, and Jurkat/Helios/HiBit cells in DMEM/10% FCS were plated at 10,000 cells/well in a final volume of 5 μL. Cells were incubated at 37 C, 95% RH for 18 hr. Luciferase activity was measured by adding 2 μL/well of Nano-Glo reagent (Promega), incubating at RT for 30 min, and reading luminescence on a microtiter plate reader.
(§1) To determine the EC50 value of a compound for the degradation of a given substrate (concentration of compound that achieves half the maximum degradation observed), a four-parameter logistic model (sigmoidal dose-response model) (FIT=(A+{(B−A)/1+[(C/x)D]})) where C is the inflection point (EC50), D is the […], and A and B are the low and high limits of the fit, respectively) was used. All substrate degradation curves were processed and evaluated using ActivityBase (IDBS), a data analysis software package. Ymax is the % protein degraded (Ymin=100−Ymax and is minimum percent protein remaining).

[2] = target: T2, IKZF1 ZNF2_ZNF3 Q1F degron-tagged CD19 CAR (Homo sapiens, UniProt Q13422, Q146F); experiment: Degradation of Q1F degron-tagged CD19 CAR in Jurkat cells (flow cytometry of CAR levels); format: cell-based; conditions: for DC50: Jurkat cells expressing CD19 CAR tagged with IKZF1 ZNF2_ZNF3 Q1F, 18 hours at 37° C., CAR levels normalized to untreated cells, read-out: Q1F Jurkat IC50; for Dmax: read-out: Q1F Jurkat-YMax
T2 construct: ZNF2_ZNF3 Q1F degron (GERPFFCNQCGASFTQKGNLLRHIKLHSGEKPFKCHLCNYACRRRDALTGHLRTHS); fused on or other part: anti-CD19 scFv, CD28 transmembrane domain, 4-1BB costimulatory domain, CD3 zeta signaling domain (the CAR that carries the degron), and Nluc
T2 sequence (Q13422 whole entry Q146F, the tested form may be a part): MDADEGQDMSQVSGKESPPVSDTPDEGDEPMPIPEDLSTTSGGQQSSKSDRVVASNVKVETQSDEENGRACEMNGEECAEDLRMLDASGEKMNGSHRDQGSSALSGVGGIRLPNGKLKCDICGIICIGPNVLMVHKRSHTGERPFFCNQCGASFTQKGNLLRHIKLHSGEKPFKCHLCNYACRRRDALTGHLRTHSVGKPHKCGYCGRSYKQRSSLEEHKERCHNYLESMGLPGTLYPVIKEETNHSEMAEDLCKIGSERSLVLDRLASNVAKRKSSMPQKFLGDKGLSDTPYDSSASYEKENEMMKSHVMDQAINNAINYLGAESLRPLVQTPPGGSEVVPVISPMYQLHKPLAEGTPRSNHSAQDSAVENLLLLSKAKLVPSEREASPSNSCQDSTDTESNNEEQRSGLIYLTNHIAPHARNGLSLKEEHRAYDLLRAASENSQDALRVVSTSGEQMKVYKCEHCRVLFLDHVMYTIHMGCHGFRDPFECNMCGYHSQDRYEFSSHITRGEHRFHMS
Text: Q1F degron-targeting compounds were screened in Jurkat cells engineered to express a IKZF1 ZNF2_ZNF3 Q1F. The cell line was generated with lentiviral vectors containing CD19 CARs tagged with IKZF1 ZNF2_ZNF3 QIF Nluc, which were transduced into Jurkat cells. The CD19 CAR comprised an anti-CD19 scFv, a CD28 transmembrane domain, a 4-1BB costimulatory domain, a CD3ζ signaling domain, and a ZNF2_ZNF3 Q1F degron (GERPFFCNQCGASFTQKGNLLRHIKLHSGEKPFKCHLCNYACRRRDALTGHLRTHS; SEQ ID NO: 1; Q1F substitution underlined). Transduced cells were treated with a titration of each small molecule or no drug and then incubated at 37° C. for 18 hours. Cells were washed and stained with appropriate staining reagent to measure CAR levels. The cells were incubated at 4° C. in the staining reagents for 20 mins and then washed 3 times before being read on the flow cytometer. CAR levels were normalized to cells that had not been treated with drug. EC50 and Ymin values were calculated using the resulting titration curve. This identified small molecules that potently degraded the Q1F degron-tagged CARs (Table 1).
as §1

[3] = Ymax is the % protein degraded, Jurkat cells expressing Q1F degron-tagged CD19 CAR, 18 hours

Compound: CN(C)c1ccc(CN2CCC(c3c(F)cc4c(c3F)CN(C3CCC(=O)NC3=O)C4=O)CC2)cc1 (stereo not drawn) [Compound 110, 3-(5-(1-(4-(dimethylamino)benzyl)piperidin-4-yl)-4,6-difluoro-1-oxoisoindolin-2-yl)piperidine-2,6-dione]
- DC50 [1]: ≥ 10000 nM
- DC50 [2]: 1.12 nM
- Dmax [2, 3]: 90.5%

Compound: Cc1cc(-c2c(F)cc3c(c2F)CN(C2CCC(=O)NC2=O)C3=O)nc(N)c1C (stereo not drawn) [Compound 93, 3-(5-(6-amino-4,5-dimethylpyridin-2-yl)-4,6-difluoro-1-oxoisoindolin-2-yl) piperidine-2,6-dione]
- DC50 [1]: ≥ 10000 nM
- DC50 [2]: 217 nM
- Dmax ([2]; Jurkat, 18 h): 69.1%

Compound: Cc1cc(-c2cc3c(cc2F)C(=O)N(C2CCC(=O)NC2=O)C3)nc(N)c1C (stereo not drawn) [Compound 34, 3-(5-(6-amino-4,5-dimethylpyridin-2-yl)-6-fluoro-1-oxoisoindolin-2-yl) piperidine-2,6-dione]
- DC50 [1]: ≥ 10000 nM
- DC50 [2]: 7.43 nM
- Dmax ([2]; Jurkat, 18 h): 91.7%

Compound: N#Cc1ccc2c(c1)CN(C(=O)c1c(F)cc3c(c1F)CN(C1CCC(=O)NC1=O)C3=O)CC2 (stereo not drawn) [Compound 70, 2-[2-(2,6-dioxo-3-piperidyl)-4,6-difluoro-1-oxo-isoindoline-5-carbonyl]-3,4-dihydro-1H-isoquinoline-7-carbonitrile]
- DC50 [1]: ≥ 10000 nM
- DC50 [2]: 15 nM
- Dmax ([2]; Jurkat, 18 h): 95.5%

Compound: O=C1CCC(N2Cc3c(cc(F)c(C4CCN(Cc5ccnn5-c5ccccc5)CC4)c3F)C2=O)C(=O)N1 (stereo not drawn) [Compound 9, 3-(4,6-difluoro-1-oxo-5-(1-((1-phenyl-1H-pyrazol-5-yl)methyl)piperidin-4-yl)isoindolin-2-yl)piperidine-2,6-dione]
- DC50 [1]: ≥ 10000 nM
- DC50 [2]: 2.74 nM
- Dmax [2, 3]: 89.1%

Compound: O=C1CCC(N2Cc3c(cc(F)c(C(=O)N4Cc5cccnc5C4)c3F)C2=O)C(=O)N1 (stereo not drawn) [Compound 77, 3-(5-(6,7-dihydro-5H-pyrrolo[3,4-b]pyridine-6-carbonyl)-4,6-difluoro-1-oxoisoindolin-2-yl)piperidine-2,6-dione]
- DC50 [1]: ≥ 10000 nM
- DC50 [2]: 14.8 nM
- Dmax [2, 3]: 94.8%

Compound: Cc1cc(CN2CCC(c3c(F)cc4c(c3F)CN(C3CCC(=O)NC3=O)C4=O)CC2)on1 (stereo not drawn) [Compound 4, 3-(4,6-difluoro-5-(1-((3-methylisoxazol-5-yl)methyl)piperidin-4-yl)-1-oxoisoindolin-2-yl)piperidine-2,6-dione]
- DC50 [1]: ≥ 10000 nM
- DC50 [2]: 105 nM
- Dmax [2, 3]: 82.3%

Compound: O=C1CCC(N2Cc3c(cc(F)c(C4CCN(C5CCC5)CC4)c3F)C2=O)C(=O)N1 (stereo not drawn) [Compound 3, 3-(5-(1-cyclobutylpiperidin-4-yl)-4,6-difluoro-1-oxoisoindolin-2-yl)piperidine-2,6-dione]
- DC50 [1]: ≥ 10000 nM
- DC50 [2]: 4.37 nM
- Dmax [2, 3]: 78.7%

Compound: O=C1CCC(N2Cc3cc(C4CCN(Cc5ccc6[nH]ccc6c5)CC4)c(F)cc3C2=O)C(=O)N1 (stereo not drawn) [Compound 89, 3-(5-(1-((1H-indol-5-yl)methyl)piperidin-4-yl)-6-fluoro-1-oxoisoindolin-2-yl)piperidine-2,6-dione]
- DC50 [1]: ≥ 10000 nM
- DC50 [2]: 2.67 nM
- Dmax [2, 3]: 94.2%

Compound: CN1CCC(N2CCC(c3c(F)cc4c(c3F)CN(C3CCC(=O)NC3=O)C4=O)CC2)CC1 (stereo not drawn) [Compound 125, 3-(4,6-difluoro-5-(1′-methyl-[1,4′-bipiperidin]-4-yl)-1-oxoisoindolin-2-yl)piperidine-2,6-dione]
- DC50 [1]: ≥ 10000 nM
- DC50 [2]: 22.1 nM
- Dmax [2, 3]: 80.1%

Compound: O=C1CCC(N2Cc3c(cc(F)c(CNC(=O)C4CCC(C(F)(F)F)CC4)c3F)C2=O)C(=O)N1 (stereo not drawn) [Compound 78, N-((2-(2,6-dioxopiperidin-3-yl)-4,6-difluoro-1-oxoisoindolin-5-yl)methyl)-4-(trifluoromethyl)cyclohexane-1-carboxamide]
- DC50 [1]: ≥ 10000 nM
- DC50 [2]: 24.5 nM
- Dmax [2, 3]: 61.7%

Compound: CS(=O)(=O)c1ccc(CN2CCC(c3cc4c(cc3F)C(=O)N(C3CCC(=O)NC3=O)C4)CC2)cc1 (stereo not drawn) [Compound 90, 3-(6-fluoro-5-(1-(4-(methylsulfonyl)benzyl)piperidin-4-yl)-1-oxoisoindolin-2-yl)piperidine-2,6-dione]
- DC50 [1]: ≥ 10000 nM
- DC50 [2]: 4.68 nM
- Dmax [2, 3]: 93.1%

Compound: O=C1CCC(N2Cc3c(cc(F)c(C4CCN(Cc5cccnc5)CC4)c3F)C2=O)C(=O)N1 (stereo not drawn) [Compound 107, 3-(4,6-difluoro-1-oxo-5-(1-(pyridin-3-ylmethyl)piperidin-4-yl)isoindolin-2-yl)piperidine-2,6-dione]
- DC50 [1]: ≥ 10000 nM
- DC50 [2]: 2.1 nM
- Dmax [2, 3]: 89.7%

Compound: O=C1CCC(N2Cc3c(cc(F)c(C4CCN(Cc5ccc6c(c5)OC(F)(F)O6)CC4)c3F)C2=O)C(=O)N1 (stereo not drawn) [Compound 59, 3-(5-(1-((2,2-difluorobenzo[d][1,3]dioxol-5-yl)methyl)piperidin-4-yl)-4,6-difluoro-1-oxoisoindolin-2-yl)piperidine-2,6-dione]
- DC50 [1]: ≥ 10000 nM
- DC50 [2]: 0.01 nM
- Dmax [2, 3]: 92.2%

Compound: Cc1ccc(CN2CCC(c3c(F)cc4c(c3F)CN(C3CCC(=O)NC3=O)C4=O)CC2)cc1 (stereo not drawn) [Compound 45, 3-(4,6-difluoro-5-(1-(4-methylbenzyl)piperidin-4-yl)-1-oxoisoindolin-2-yl)piperidine-2,6-dione]
- DC50 [1]: ≥ 10000 nM
- DC50 [2]: 0.343 nM
- Dmax [2, 3]: 90.6%

Compound: O=C1CCC(N2Cc3c(cc(F)c(C4(O)CCN(Cc5ccc6cn[nH]c6c5)CC4)c3F)C2=O)C(=O)N1 (stereo not drawn) [Compound 42, 3-[4,6-difluoro-5-[4-hydroxy-1-(1H-indazol-6-ylmethyl)-4-piperidyl]-1-oxo-isoindolin-2-yl]piperidine-2,6-dione]
- DC50 [1]: ≥ 10000 nM
- DC50 [2]: 4.39 nM
- Dmax [2, 3]: 87.7%

Compound: O=C1CCC(N2Cc3c(cc(F)c(C4CCN(Cc5ccc(C(F)F)cc5)CC4)c3F)C2=O)C(=O)N1 (stereo not drawn) [Compound 51, 3-(5-(1-(4-(difluoromethyl)benzyl)piperidin-4-yl)-4,6-difluoro-1-oxoisoindolin-2-yl)piperidine-2,6-dione]
- DC50 [1]: ≥ 10000 nM
- DC50 [2]: 0.097 nM
- Dmax [2, 3]: 92%

Compound: O=C1CCC(N2Cc3c(cc(F)c(C4(O)CCN(Cc5cc(C(F)(F)F)cc(C6CC6)n5)CC4)c3F)C2=O)C(=O)N1 (stereo not drawn) [Compound 17, 3-(5-(1-((6-cyclopropyl-4-(trifluoromethyl)pyridin-2-yl)methyl)-4-hydroxypiperidin-4-yl)-4,6-difluoro-1-oxoisoindolin-2-yl)piperidine-2,6-dione]
- DC50 [1]: ≥ 10000 nM
- DC50 [2]: 28.9 nM
- Dmax [2, 3]: 69.2%

Compound: CN(CCN1CCC(c2cc3c(cc2F)C(=O)N(C2CCC(=O)NC2=O)C3)CC1)Cc1ccccc1 (stereo not drawn) [Compound 80, 3-(5-(1-(2-(benzyl(methyl)amino)ethyl)piperidin-4-yl)-6-fluoro-1-oxoisoindolin-2-yl)piperidine-2,6-dione]
- DC50 [1]: ≥ 10000 nM
- DC50 [2]: 0.533 nM
- Dmax [2, 3]: 85.1%

Compound: O=C1CCC(N2Cc3c(cc(F)c(C4(O)CCN(Cc5nc6ccccc6s5)CC4)c3F)C2=O)C(=O)N1 (stereo not drawn) [Compound 57, 3-(5-(1-(benzo[d]thiazol-2-ylmethyl)-4-hydroxypiperidin-4-yl)-4,6-difluoro-1-oxoisoindolin-2-yl)piperidine-2,6-dione]
- DC50 [1]: ≥ 10000 nM
- DC50 [2]: 101 nM
- Dmax [2, 3]: 63.2%

Compound: O=C1CCC(N2Cc3c(cc(F)c(C4CCN(Cc5ccc6c(c5)CCC6)CC4)c3F)C2=O)C(=O)N1 (stereo not drawn) [Compound 60, 3-(5-(1-((2,3-dihydro-1H-inden-5-yl)methyl)piperidin-4-yl)-4,6-difluoro-1-oxoisoindolin-2-yl)piperidine-2,6-dione]
- DC50 [1]: ≥ 10000 nM
- DC50 [2]: 0.691 nM
- Dmax [2, 3]: 91.8%

Compound: O=C1CCC(N2Cc3c(cc(F)c(C4CCN(Cc5ccc6ccccc6n5)CC4)c3F)C2=O)C(=O)N1 (stereo not drawn) [Compound 53, 3-(4,6-difluoro-1-oxo-5-(1-(quinolin-2-ylmethyl)piperidin-4-yl)isoindolin-2-yl)piperidine-2,6-dione]
- DC50 [1]: ≥ 10000 nM
- DC50 [2]: 0.727 nM
- Dmax [2, 3]: 93.3%
